Results taken from ChEMBL document CHEMBL5728826, “Benzimidazole compounds and derivatives as EGFR inhibitors” (2021).

Target: Epidermal growth factor receptor (Homo sapiens, UniProt P00533)
Assay: Biochemical EGFR Inhibition Assays ([…]): 5 μL of EGFR enzyme form in assay buffer (50 mM HEPES pH 7.3, 10 mM MgCl2, 1 mM EGTA, 0.01% Tween 20, 2 mM DTT) are dispensed into columns 1-23, than 5 μL of ATP and ULight-poly-GT substrate (PerkinElmer; TRF0100-M) mix in assay buffer is added to all wells (final assay concentration of the ULight-poly-GT substrate 200 nM). Each of the different …

Sequence of Epidermal growth factor receptor (P00533 whole entry): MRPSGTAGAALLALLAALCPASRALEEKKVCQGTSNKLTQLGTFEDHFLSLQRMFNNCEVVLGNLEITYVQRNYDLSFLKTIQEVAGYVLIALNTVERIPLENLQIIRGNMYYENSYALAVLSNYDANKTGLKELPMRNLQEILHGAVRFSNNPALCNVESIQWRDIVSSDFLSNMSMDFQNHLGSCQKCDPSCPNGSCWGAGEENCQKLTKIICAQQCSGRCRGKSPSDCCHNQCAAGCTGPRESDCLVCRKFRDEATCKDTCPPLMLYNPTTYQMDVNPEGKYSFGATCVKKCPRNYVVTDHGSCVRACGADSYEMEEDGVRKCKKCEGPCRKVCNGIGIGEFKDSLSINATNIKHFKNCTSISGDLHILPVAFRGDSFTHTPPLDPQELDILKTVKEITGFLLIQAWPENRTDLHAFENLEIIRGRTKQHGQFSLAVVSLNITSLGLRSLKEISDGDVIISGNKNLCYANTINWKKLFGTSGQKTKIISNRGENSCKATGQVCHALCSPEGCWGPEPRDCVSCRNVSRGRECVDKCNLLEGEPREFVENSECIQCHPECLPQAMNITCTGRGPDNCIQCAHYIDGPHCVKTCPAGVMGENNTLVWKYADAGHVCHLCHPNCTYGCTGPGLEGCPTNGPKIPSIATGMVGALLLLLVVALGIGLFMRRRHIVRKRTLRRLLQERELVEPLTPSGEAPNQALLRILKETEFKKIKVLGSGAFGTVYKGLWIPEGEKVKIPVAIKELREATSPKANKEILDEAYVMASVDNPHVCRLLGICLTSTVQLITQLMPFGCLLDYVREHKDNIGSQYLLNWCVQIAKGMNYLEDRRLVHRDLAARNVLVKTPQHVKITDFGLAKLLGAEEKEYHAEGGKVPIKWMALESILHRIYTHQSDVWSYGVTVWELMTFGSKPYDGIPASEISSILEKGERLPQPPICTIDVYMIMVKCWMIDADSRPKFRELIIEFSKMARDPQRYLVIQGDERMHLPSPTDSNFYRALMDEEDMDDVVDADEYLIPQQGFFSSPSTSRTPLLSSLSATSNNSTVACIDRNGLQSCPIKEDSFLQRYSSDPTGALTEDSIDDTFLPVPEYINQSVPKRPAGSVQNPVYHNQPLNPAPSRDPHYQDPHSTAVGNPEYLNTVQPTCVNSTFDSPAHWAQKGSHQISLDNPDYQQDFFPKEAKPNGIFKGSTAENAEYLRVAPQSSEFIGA

With `Cn1cc(-c2cc(C(=O)/N=c3\[nH]c4ccccc4n3CC(C)(C)O)ccn2)cn1` as the molecule, how does the IC50 read?
Its IC50 is greater than 100000 nM.

How did the IC50 turn out when `COc1ccncc1-c1cc(C(=O)/N=c2\[nH]c3cc(C4CCN(C(C)=O)CC4)ccc3n2CC(C)(C)O)ccn1` was run?
Its IC50 is 217 nM.
